From patent US20110117054A1, “USE OF RIBAVIRIN IN BLOOD COAGULATION DISORDER” (National University Corporation Nagoya University, priority 2007, published 2011)

System: HCV
Experiment: HCV eradication in HCV positive hemophilia patients (Working Example 6)
Assay type: in vivo, hepatitis C virus
Conditions: Patient No. 6, interferon-α-2b alone prior to administration in this example
Protocol: In Table 5, the severity of hemophilia was rated as mild when the level of coagulation factors exceeded 5%, moderate when this level was from 1 to 5%, and severe when this level was below 1%. The HCV-RNA level was measured with an Amplicor HCV Assay, version 2 (Roche) at the start of administration. The genotype of the HCV virus was determined from the base sequence of the 5′-UTR region thereof. HCV eradication was indicated as “yes” when HCV-RNA viruses were not detected for 24 weeks following the end of administration. The HIV infection state was determined by the HIV antibodies using a particle agglutination assay kit (Fujirebio Inc.).

interferon-α-2b was tested, and the HCV eradication was “not eradicated”.
